Laboratory results: patent US20120083522A1, “MODULATION OF INFLAMMATORY RESPONSES BY FACTOR XI” (Isis Pharmaceuitcals, inc., priority 2009, published 2012)

What was measured:
Format in all cases: cell-based
human Factor XI mRNA [1] = assay: Dose-dependent inhibition in HepG2 cells, electroporation (Example 5); conditions: approx. 16 h, relative to untreated control cells
Protocol: The gapmers were also transfected via electroporation and their dose dependent inhibition of human Factor XI mRNA was measured. Cells were plated at a density of 20,000 cells per well and transfected via electroporation with 625 nM, 1250 nM, 2500 nM, 5,000 nM, 10,000 nM, and 20,000 nM concentrations of antisense oligonucleotide, as specified in Table 12. After a treatment period of approximately 16 hours, RNA was isolated from the cells and human Factor XI mRNA levels were measured by quantitative real-time PCR. Human Factor XI primer probe set RTS 2966 was used to measure mRNA levels. Factor XI mRNA levels were adjusted according to total RNA content, as measured by RIBOGREEN®. Results are presented as percent inhibition of human Factor XI, relative to untreated control cells.

human Factor XI mRNA [2] = assay: Dose-dependent inhibition in HepG2 cells, electroporation (Example 4); conditions: 16 hours
Procedure, shortened: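 HepG2 cells electroporated with 0.7, 2.2, 6.7 or 20 μM antisense gapmer and harvested after ~16 h. Factor XI mRNA quantified by qRT-PCR (primer probe set RTS 2966), normalised to total RNA (RIBOGREEN). Reported as percent inhibition versus untreated control cells.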

human Factor XI mRNA [3] = assay: Dose-dependent inhibition in HepB3 cells, lipofectin (Example 7); conditions: approx. 16 h
Protocol: Cells were plated at a density of 4,000 cells per well and transfected using lipofectin reagent with 2.3 nM, 4.7 nM, 9.4 nM, 18.75 nM, 37.5 nM, and 75 nM concentrations of antisense oligonucleotide, as specified in Table 14. After a treatment period of approximately 16 hours, RNA was isolated from the cells and human Factor XI mRNA levels were measured by quantitative real-time PCR. Human Factor XI primer probe set RTS 2966 was used to measure mRNA levels. Factor XI mRNA levels were adjusted according to total RNA content, as measured by RIBOGREEN®. Results are presented as percent inhibition of Factor XI, relative to untreated control cells.

human Factor XI mRNA [4] = assay: Dose-dependent inhibition in HepG2 cells, lipofectin (Example 5); conditions: 16 hours
Protocol: Cells were plated at a density of 10,000 cells per well and transfected using lipofectin reagent with 2.34 nM, 4.69 nM, 9.375 nM, 18.75 nM, 37.5 nM, and 75 nM concentrations of antisense oligonucleotide, as specified in Table 11. After a treatment period of approximately 16 hours, RNA was isolated from the cells and human Factor XI mRNA levels were measured by quantitative real-time PCR. Human Factor XI primer probe set RTS 2966 was used to measure mRNA levels. Factor XI mRNA levels were adjusted according to total RNA content, as measured by RIBOGREEN®. Results are presented as percent inhibition of human Factor XI, relative to untreated control cells.

human Factor XI mRNA [5] = assay: Antisense inhibition in HepG2 cells by microwalk gapmers, 75 nM, lipofectin (Example 3); conditions: HepG2 cells, 75 nM
Procedure, shortened: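 HepG2 cells (10,000 per well) were transfected with 75 nM gapmer using lipofectin and treated for about 24 h. Factor XI mRNA was quantified by real-time PCR, normalized to RiboGreen total RNA and expressed as percent inhibition versus untreated controls.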

[6] = oligonucleotides targeted to nucleobases 1275 to 1318 of SEQ ID NO: 1

Substance	percent inhibition of human Factor XI mRNA (human Factor XI mRNA [1]; 625 nM) [%]	percent inhibition of human Factor XI mRNA (human Factor XI mRNA [1]; 1250 nM) [%]	percent inhibition of human Factor XI mRNA (human Factor XI mRNA [1]; 2500 nM) [%]	percent inhibition of human Factor XI mRNA (human Factor XI mRNA [1]; 5000 nM) [%]	percent inhibition of human Factor XI mRNA (human Factor XI mRNA [1]; 10000 nM) [%]	percent inhibition of human Factor XI mRNA (human Factor XI mRNA [1]; 20000 nM) [%]	percent inhibition of Factor XI mRNA, relative to untreated control cells (human Factor XI mRNA [2]; 0.7 μM) [%]	percent inhibition of Factor XI mRNA, relative to untreated control cells (human Factor XI mRNA [2]; 2.2 μM) [%]	percent inhibition of Factor XI mRNA, relative to untreated control cells (human Factor XI mRNA [2]; 6.7 μM) [%]	percent inhibition of Factor XI mRNA, relative to untreated control cells (human Factor XI mRNA [2]; 20 μM) [%]	percent inhibition of human Factor XI mRNA (human Factor XI mRNA [3]; 2.3 nM) [%]	percent inhibition of human Factor XI mRNA (human Factor XI mRNA [3]; 4.7 nM) [%]	percent inhibition of human Factor XI mRNA (human Factor XI mRNA [3]; 9.4 nM) [%]	percent inhibition of human Factor XI mRNA (human Factor XI mRNA [3]; 18.75 nM) [%]	percent inhibition of human Factor XI mRNA (human Factor XI mRNA [3]; 37.5 nM) [%]	percent inhibition of human Factor XI mRNA (human Factor XI mRNA [3]; 75 nM) [%]	percent inhibition of human Factor XI mRNA, relative to untreated control cells (human Factor XI mRNA [4]; 2.34 nM) [%]	percent inhibition of human Factor XI mRNA, relative to untreated control cells (human Factor XI mRNA [4]; 4.69 nM) [%]	percent inhibition of human Factor XI mRNA, relative to untreated control cells (human Factor XI mRNA [4]; 9.375 nM) [%]	percent inhibition of human Factor XI mRNA, relative to untreated control cells (human Factor XI mRNA [4]; 18.75 nM) [%]	other results
416825 (antisense GCCCTTCATGTCTAGGTCCA; 5-10-5 gapmer, wing sugar chemistry not given here, further chemistry not given here) [compound 416825]	69	84	91	94	96	97	27	74	92	98	0	15	34	36	53	59	4	22	39	57	percent inhibition of human Factor XI mRNA, relative to untreated control cells (human Factor XI mRNA [4]; 37.5 nM): 79%; percent inhibition of human Factor XI mRNA, relative to untreated control cells (human Factor XI mRNA [4]; 75 nM): 89%
416838 (antisense GCAACCGGGATGATGAGTGC; 5-10-5 gapmer, wing sugar chemistry not given here, further chemistry not given here) [compound 416838]	66	79	87	90	93	96	5	30	55	83	23	34	43	59	71	56	21	37	50	63	% inhibition of human Factor XI mRNA levels (human Factor XI mRNA [5]; oligonucleotides targeted to nucleobases 1018 to 1042 of SEQ ID NO: 1): 94%; percent inhibition of human Factor XI mRNA, relative to untreated control cells (human Factor XI mRNA [4]; 37.5 nM): 74%; percent inhibition of human Factor XI mRNA, relative to untreated control cells (human Factor XI mRNA [4]; 75 nM): 83%
416850 (antisense TGCACAGTTTCTGGCAGGCC; 5-10-5 gapmer, wing sugar chemistry not given here, further chemistry not given here) [compound 416850]	69	80	87	90	93	96	14	25	81	91	22	32	43	56	75	60	24	31	49	55	% inhibition of human Factor XI mRNA levels (human Factor XI mRNA [5]; [6]): 93%; percent inhibition of human Factor XI mRNA, relative to untreated control cells (human Factor XI mRNA [4]; 37.5 nM): 70%; percent inhibition of human Factor XI mRNA, relative to untreated control cells (human Factor XI mRNA [4]; 75 nM): 77%
416858 (antisense ACGGCATTGGTGCACAGTTT; 5-10-5 gapmer, wing sugar chemistry not given here, further chemistry not given here) [compound 416858]	65	77	87	89	93	93	5	20	56	86	17	34	43	57	74	62	11	35	46	61	% inhibition of human Factor XI mRNA levels (human Factor XI mRNA [5]; [6]): 93%; percent inhibition of human Factor XI mRNA, relative to untreated control cells (human Factor XI mRNA [4]; 37.5 nM): 75%; percent inhibition of human Factor XI mRNA, relative to untreated control cells (human Factor XI mRNA [4]; 75 nM): 77%
